This is an account of results in patent US8633236B2, “Compounds, compositions and methods” (Cytokinetics, Inc., priority 2002, dated 2014).

Assay [1] is described as follows: Potency comparison of separated enantiomers (test not specified). Conditions: (R)- versus (S)-enantiomer separated on Chiralpak AD. As to the method:
An enriched 3:1 R:S mixture of chromenone enantiomers was separated into its pure enantiomers by chiral chromatography with the following conditions: Column—Chiralpak AD, 250×4.6 mm (Diacel Inc.). Sample—22.5 mg/ml in 1:1 i-PrOH:hexanes. Conditions—40 min at isocratic 50% i-PrOH in Hexanes, (S)-enantiomer elutes at 18.35 min, (R)-enantiomer elutes at 26.87 min.

The test system of a further assay is A549 cells. Conditions: cited from earlier work.

The term GI50 denotes the concentration giving 50% growth inhibition.

`Cc1ccc(C(=O)N(CCCN)[C@@H](c2oc3cc(Cl)ccc3c(=O)c2Cc2ccccc2)C(C)C)cc1` (single isomer, unassigned) [Example 2 (R)-enantiomer]: the “relative potency of enantiomers” value in assay [1] is recorded as “significantly more potent than the (S)-enantiomer”.

As for `O=c1[nH]cc(F)c(=O)[nH]1` [5-fluorouracil], in the assay on A549 cells, the concentration for 50% growth inhibition (GI50) was 1000 nM. Consider `COc1cccc2c1C(=O)c1c(O)c3c(c(O)c1C2=O)C[C@@](O)(C(=O)CO)C[C@@H]3O[C@H]1C[C@H](N)[C@H](O)[C@H](C)O1` [doxorubicin], for which the GI50 in the assay with A549 cells was 63 nM. `NC(=O)NO` [hydroxyurea]: the GI50 in the assay on A549 cells is 500000 nM. In the case of `CC(=O)O[C@H]1C(=O)[C@@]2(C)[C@H]([C@H](OC(=O)c3ccccc3)[C@]3(O)C[C@H](OC(=O)[C@H](O)[C@@H](NC(=O)c4ccccc4)c4ccccc4)C(C)=C1C3(C)C)[C@]1(OC(C)=O)CO[C@@H]1C[C@@H]2O` [paclitaxel], the concentration for 50% growth inhibition (GI50) with A549 cells is 4 nM.
